Measurements as given in ChEMBL document CHEMBL1134718, “N-acyloxymethyl carbamate linked prodrugs of pseudomycins are novel antifungal agents” (2001).
≈ marks a conversion by molar mass, not a printed value. Positions of bridges follow the written chain, without caps; N, C: chain ends. Non-standard residues stand in square brackets, D forms with d. Residues, ends and D or L forms follow the SMILES beside them. *: point of attachment. Tetradecanoyl(3R-OH) = CCCCCCCCCCC[C@@H](O)CC(=O)*; Asp(3S-OH) = N[C@H](C(=O)O)[C@H](O)C(=O)O; Thr(4-Cl) = N[C@H](C(=O)O)[C@H](O)CCl; aThr = C[C@H](O)[C@H](N)C(=O)O; dDab = NCC[C@@H](N)C(=O)O; Dab = NCC[C@H](N)C(=O)O; Dhb = C/C=C(\N)C(=O)O

What was measured:
[1] = system: Mus musculus; assay: Effective dose against disseminated Candidiasis mouse model after intraperitoneal administration; assay type: functional
[2] = system: Candida albicans; assay: Minimum inhibitory concentration against Candida albicans.; assay type: functional
[3] = system: Aspergillus fumigatus; assay: Minimum inhibitory concentration against Aspergillus fumigatus; assay type: functional
[4] = system: Cryptococcus neoformans; assay: Minimum inhibitory concentration against Cryptococcus neoformans.
[5] = system: Mus musculus; assay: The compound was tested for antifungal activity in tail vein irritation model 7 days after a dose of 20 mg/kg administered intravenously at 0,24,48,72 h; Positive; assay type: functional, organism-based; set-up: dose 20 mg/kg
[6] = system: Mus musculus; assay: The compound was tested for antifungal activity in tail vein irritation model 7 days after a dose of 20 mg/kg administered intravenously at 0,24,48,72 h; Negative; assay type: functional, organism-based; set-up: dose 20 mg/kg
[7] = system: Mus musculus; assay: Effective dose against disseminated Candidiasis mouse model after intraperitoneal administration; Value ranges from 2.5-7.2; assay type: functional
[8] = system: Mus musculus; assay: Effective dose against disseminated Candidiasis mouse model after intraperitoneal administration; Value ranges from 7.8-12.4; assay type: functional
[9] = system: Mus musculus; assay: Effective dose against disseminated Candidiasis mouse model after intraperitoneal administration; Value represented as 6.4/14.1; assay type: functional

`C/C=C1/NC(=O)[C@H]([C@H](C)O)NC(=O)[C@H](CCNC(=O)OCOC(=O)C(C)(C)C)NC(=O)[C@H](CCCCNC(=O)OCOC(=O)C(C)(C)C)NC(=O)[C@H](CC(=O)O)NC(=O)[C@@H](CCNC(=O)OCOC(=O)C(C)(C)C)NC(=O)[C@@H](NC(=O)C[C@H](O)CCCCCCCCCCCCC)COC(=O)[C@H]([C@H](O)CCl)NC(=O)[C@H]([C@H](O)C(=O)O)NC1=O` showed an ED50 [1] of 9 mg 4kg-1, an MIC [2] of over 20 µg/mL and an MIC [3] of over 20 µg/mL. The MIC [4] was over 20 µg/mL.

`C/C=C1/NC(=O)[C@H]([C@H](C)O)NC(=O)[C@@H](CCNC(=O)OCOC(C)=O)NC(=O)[C@H](CCCCNC(=O)OCOC(C)=O)NC(=O)[C@H](CC(=O)O)NC(=O)[C@@H](CCNC(=O)OCOC(C)=O)NC(=O)[C@@H](NC(=O)C[C@H](O)CCCCCCCCCCC)COC(=O)[C@H]([C@H](O)CCl)NC(=O)[C@H]([C@H](O)C(=O)O)NC1=O` was tested, and the Toxicity [5] was “Positive”.

`C/C=C1/NC(=O)[C@H]([C@H](C)O)NC(=O)[C@@H](CCNC(=O)OCOC(=O)C(C)(C)C)NC(=O)[C@H](CCCCNC(=O)OCOC(=O)C(C)(C)C)NC(=O)[C@H](CC(=O)O)NC(=O)[C@@H](CCNC(=O)OCOC(=O)C(C)(C)C)NC(=O)[C@@H](NC(=O)C[C@H](O)CCCCCCCCCCC)COC(=O)[C@H]([C@H](O)CCl)NC(=O)[C@H]([C@H](O)C(=O)O)NC1=O` was tested, and the Toxicity [6] was “Negative”.

In the case of `C/C=C1/NC(=O)[C@H]([C@H](C)O)NC(=O)[C@@H](CCNC(=O)OCOC(=O)C(C)(C)C)NC(=O)[C@H](CCCCNC(=O)OCOC(=O)C(C)(C)C)NC(=O)[C@H](CC(=O)O)NC(=O)[C@@H](CCNC(=O)OCOC(=O)C(C)(C)C)NC(=O)[C@@H](NC(=O)C[C@H](O)CCCCCCCCCCCCC)COC(=O)[C@H]([C@H](O)CCl)NC(=O)[C@H]([C@H](O)C(=O)O)NC1=O`, the Toxicity [6] is reported as “Negative”.

For `C/C=C1/NC(=O)[C@H]([C@H](C)O)NC(=O)[C@@H](CCN)NC(=O)[C@H](CCCCN)NC(=O)[C@H](CC(=O)O)NC(=O)[C@@H](CCN)NC(=O)[C@@H](NC(=O)C[C@H](O)CCCCCCCCCCCCC)COC(=O)[C@H]([C@H](O)CCl)NC(=O)[C@H]([C@H](O)C(=O)O)NC1=O`, the Toxicity [5] was “Positive”.

With `C/C=C1\NC(=O)[C@H]([C@H](C)O)NC(=O)[C@H](CCN)NC(=O)[C@H](CCCCN)NC(=O)[C@H](CC(=O)O)NC(=O)[C@@H](CCN)NC(=O)[C@@H](NC(=O)C[C@H](O)CCCCCCCCCCC)COC(=O)[C@H]([C@H](O)CCl)NC(=O)[C@H]([C@H](O)C(=O)O)NC1=O` [PSEUDOMYCIN B] ({Tetradecanoyl(3R-OH)}-S[dDab]DK[Dab][aThr][Dhb][Asp(3S-OH)][Thr(4-Cl)]; ester 1-C) the ED50 [7] was 2.5 mg 4kg-1, the MIC [2] was 0.625 µg/mL (≈ 0.517 µM) and the Toxicity [5] was “Positive”. The MIC [3] was 20 µg/mL (≈ 16.6 µM) and the MIC [4] was 0.039 µg/mL (≈ 0.0323 µM).

With `C/C=C1/NC(=O)[C@H]([C@H](C)O)NC(=O)[C@H](CCN)NC(=O)[C@H](CCCCN)NC(=O)[C@H](CC(=O)O)NC(=O)[C@@H](CCN)NC(=O)[C@@H](NC(=O)C[C@H](O)CCCCCCCCCCCCC)COC(=O)[C@H]([C@H](O)CCl)NC(=O)[C@H]([C@H](O)C(=O)O)NC1=O` [PSEUDOMYCIN C] the ED50 [8] was 7.8 mg 4kg-1, the MIC [2] was 0.312 µg/mL (≈ 0.252 µM) and the MIC [3] was 10 µg/mL (≈ 8.09 µM). The MIC [4] was under 0.02 µg/mL.

In the case of `C/C=C1/NC(=O)[C@H]([C@H](C)O)NC(=O)[C@H](CCNC(=O)OCOC(C)=O)NC(=O)[C@H](CCCCNC(=O)OCOC(C)=O)NC(=O)[C@H](CC(=O)O)NC(=O)[C@@H](CCNC(=O)OCOC(C)=O)NC(=O)[C@@H](NC(=O)C[C@H](O)CCCCCCCCCCC)COC(=O)[C@H]([C@H](O)CCl)NC(=O)[C@H]([C@H](O)C(=O)O)NC1=O`, the ED50 [1] is reported as 13 mg 4kg-1.

Compound `C/C=C1/NC(=O)[C@H]([C@H](C)O)NC(=O)[C@H](CCNC(=O)OCOC(=O)C(C)(C)C)NC(=O)[C@H](CCCCNC(=O)OCOC(=O)C(C)(C)C)NC(=O)[C@H](CC(=O)O)NC(=O)[C@@H](CCNC(=O)OCOC(=O)C(C)(C)C)NC(=O)[C@@H](NC(=O)C[C@H](O)CCCCCCCCCCC)COC(=O)[C@H]([C@H](O)CCl)NC(=O)[C@H]([C@H](O)C(=O)O)NC1=O` has an MIC [2] of over 20 µg/mL, an ED50 [9] of 6.4 mg 4kg-1 and an MIC [3] of over 20 µg/mL. The MIC [4] was over 20 µg/mL.

For `C/C=C1/NC(=O)[C@H]([C@H](C)O)NC(=O)[C@@H](CCNC(=O)OC(C)OC(C)=O)NC(=O)[C@H](CCCCNC(=O)OC(C)OC(C)=O)NC(=O)[C@H](CC(=O)O)NC(=O)[C@@H](CCNC(=O)OC(C)OC(C)=O)NC(=O)[C@@H](NC(=O)C[C@H](O)CCCCCCCCCCC)COC(=O)[C@H]([C@H](O)CCl)NC(=O)[C@H]([C@H](O)C(=O)O)NC1=O` (some centres undefined), the ED50 [1] was over 20 mg 4kg-1 and the Toxicity [6] was “Negative”.
